Assay results published in ChEMBL document CHEMBL1201862, “PubChem BioAssay data set” (2004).
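Grown in 96-well plates, cells were treated for 48 hours with each compound at five concentrations. Insufficient inhibition: endpoint recorded as highest concentration tested. The concentration for 50% growth inhibition is given as GI50.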 Calls of active or inactive are those of the source. Cut-off read from the data, not from the text of the source: active = GI50 up to about 1.1 µM and inactive = higher.

Assays:
Test in all cases: inhibition of tumour cell growth, NCI panel, 48 h
BT-549 = system: BT-549
EKVX = system: EKVX
HL-60 = system: HL-60
HOP-62 = system: HOP-62
HT-29 = system: HT-29
IGROV-1 = system: IGROV-1
LOX IMVI = system: LOX IMVI
MDA-MB-231 = system: MDA-MB-231
MDA-MB-435 = system: MDA-MB-435
MOLT-4 = system: MOLT-4
NCI-H226 = system: NCI-H226
NCI-H23 = system: NCI-H23
PC-3 = system: PC-3
SN12C = system: SN12C
SNB-75 = system: SNB-75
T47D = system: T47D
U-251 = system: U-251
UACC-62 = system: UACC-62
MDA-N = system: MDA-N
NCI-H460 = system: NCI-H460

Row | SMILES | GI50 (BT-549) | GI50 (EKVX) | GI50 (HL-60) | GI50 (HOP-62) | GI50 (HT-29) | GI50 (IGROV-1) | GI50 (LOX IMVI) | GI50 (MDA-MB-231) | GI50 (MDA-MB-435) | GI50 (MOLT-4) | GI50 (NCI-H226) | GI50 (NCI-H23) | GI50 (PC-3) | GI50 (SN12C) | GI50 (SNB-75) | GI50 (T47D) | GI50 (U-251) | GI50 (UACC-62) | GI50 (MDA-N) | GI50 (NCI-H460)
1 | CCCC1=NC(C(F)(F)F)(C(F)(F)F)N=C(N2CCOCC2)O1 | > 100 µM (inactive) | > 100 µM (inactive) | > 100 µM (inactive) | > 100 µM (inactive) | > 100 µM (inactive) | > 100 µM (inactive) | > 100 µM (inactive) | > 100 µM (inactive) | > 100 µM (inactive) | > 100 µM (inactive) | > 100 µM (inactive) | > 100 µM (inactive) | > 100 µM (inactive) | > 100 µM (inactive) | > 100 µM (inactive) | > 100 µM (inactive) | > 100 µM (inactive) | > 100 µM (inactive) | – | –
2 | CC(C)=CCc1ccc2[nH]c3c(c2c1)C(=O)C(=O)C(C)=C3C(O)C(C)O (configuration not stated) | – | 16.1 µM (inactive) | 0.769 µM (active) | 20.3 µM (inactive) | 9.33 µM (inactive) | 2.36 µM (inactive) | 2 µM (inactive) | 3.54 µM (inactive) | 2.85 µM (inactive) | 1.7 µM (inactive) | 15.1 µM (inactive) | 5.4 µM (inactive) | 9.57 µM (inactive) | 8.55 µM (inactive) | 17.7 µM (inactive) | 2.29 µM (inactive) | 6.03 µM (inactive) | 5.52 µM (inactive) | 3.06 µM (inactive) | 14.1 µM (inactive)
3 | CC(=O)OCC(C)C1=C(O)C(=O)C2(C)C/C=C(/C)CC/C=C(\C)CCC(O)C(C)CCC12 (configuration not stated) | – | 16.4 µM (inactive) | 17.5 µM (inactive) | 17 µM (inactive) | 17.3 µM (inactive) | 15.2 µM (inactive) | 18.1 µM (inactive) | 16.3 µM (inactive) | 17.5 µM (inactive) | 10 µM (inactive) | 17.6 µM (inactive) | 17.8 µM (inactive) | 15.3 µM (inactive) | 19 µM (inactive) | 16.2 µM (inactive) | 1.94 µM (inactive) | 17 µM (inactive) | 18.8 µM (inactive) | 17 µM (inactive) | 14.7 µM (inactive)
4 | Cn1c(-c2cccc(N)c2)[n+](C)c2ccccc21 | > 100 µM (inactive) | > 100 µM (inactive) | 36.1 µM (inactive) | > 100 µM (inactive) | > 100 µM (inactive) | > 100 µM (inactive) | > 100 µM (inactive) | > 100 µM (inactive) | > 100 µM (inactive) | > 100 µM (inactive) | > 100 µM (inactive) | 48.3 µM (inactive) | > 100 µM (inactive) | – | > 100 µM (inactive) | > 100 µM (inactive) | > 10 µM (inactive) | > 100 µM (inactive) | – | > 100 µM (inactive)
5 | CCOC(=O)/C1=C(\C)N(c2ccc(C)cc2)C(=O)c2ccccc2C(=O)c2c(OC(C)=O)ccc(OC(C)=O)c21 | 25.3 µM (inactive) | – | 20 µM (inactive) | 18.5 µM (inactive) | 14.6 µM (inactive) | 4.01 µM (inactive) | 14.4 µM (inactive) | 12.9 µM (inactive) | 15.3 µM (inactive) | 6.27 µM (inactive) | 14.6 µM (inactive) | 19.9 µM (inactive) | 26.2 µM (inactive) | 20.4 µM (inactive) | 25.8 µM (inactive) | 13.7 µM (inactive) | 24.9 µM (inactive) | 15 µM (inactive) | – | 18.3 µM (inactive)
6 | COc1c(C)c2nc3ccccc3nc2c2c(O)ccnc12 | – | > 100 µM (inactive) | > 100 µM (inactive) | 23.5 µM (inactive) | 69.7 µM (inactive) | 43.3 µM (inactive) | > 100 µM (inactive) | > 100 µM (inactive) | > 100 µM (inactive) | > 100 µM (inactive) | > 100 µM (inactive) | 55.6 µM (inactive) | > 100 µM (inactive) | > 100 µM (inactive) | 7.13 µM (inactive) | 6.64 µM (inactive) | 54.5 µM (inactive) | – | > 100 µM (inactive) | 53.5 µM (inactive)
7 | COc1cc(C2NCCC(c3ccccc3)(c3ccccc3)N2)cc(OC)c1OC (configuration not stated) | – | > 100 µM (inactive) | 5.83 µM (inactive) | 34 µM (inactive) | 4.66 µM (inactive) | 27.2 µM (inactive) | 13.5 µM (inactive) | 68.9 µM (inactive) | 18.5 µM (inactive) | > 10 µM (inactive) | 12.7 µM (inactive) | 23.4 µM (inactive) | – | 59.3 µM (inactive) | 41.7 µM (inactive) | 58.2 µM (inactive) | 32.9 µM (inactive) | 25.2 µM (inactive) | – | 9.59 µM (inactive)
8 | OC(c1ccoc1)c1cc2ccccc2s1 (configuration not stated) | – | > 10 µM (inactive) | > 10 µM (inactive) | > 10 µM (inactive) | > 10 µM (inactive) | > 10 µM (inactive) | > 10 µM (inactive) | > 10 µM (inactive) | > 10 µM (inactive) | > 10 µM (inactive) | > 10 µM (inactive) | > 10 µM (inactive) | > 10 µM (inactive) | > 10 µM (inactive) | > 10 µM (inactive) | > 10 µM (inactive) | > 10 µM (inactive) | > 10 µM (inactive) | > 10 µM (inactive) | > 10 µM (inactive)
9 | Cc1cc2nc3c(C#N)c4c(c(Cl)n3c2cc1C)CCC4 | 22.5 µM (inactive) | 61.1 µM (inactive) | – | > 100 µM (inactive) | – | – | 18.1 µM (inactive) | 15.9 µM (inactive) | 19.3 µM (inactive) | 26 µM (inactive) | 74.1 µM (inactive) | 24.1 µM (inactive) | – | 18.6 µM (inactive) | > 100 µM (inactive) | 40.7 µM (inactive) | 15.1 µM (inactive) | – | – | 37.6 µM (inactive)
10 | CN(C)c1nc(N)nc(CS)n1 | > 100 µM (inactive) | > 100 µM (inactive) | 23.3 µM (inactive) | 56.1 µM (inactive) | > 100 µM (inactive) | > 100 µM (inactive) | 42.3 µM (inactive) | 45.6 µM (inactive) | > 100 µM (inactive) | 50 µM (inactive) | > 100 µM (inactive) | > 100 µM (inactive) | 54.3 µM (inactive) | > 100 µM (inactive) | > 100 µM (inactive) | > 100 µM (inactive) | 89.5 µM (inactive) | 61.4 µM (inactive) | – | 46 µM (inactive)
11 | O=C(O)CCC1CCc2cccc3occ1c23 (configuration not stated) | – | > 100 µM (inactive) | > 100 µM (inactive) | > 100 µM (inactive) | > 100 µM (inactive) | > 100 µM (inactive) | > 100 µM (inactive) | – | – | > 100 µM (inactive) | > 100 µM (inactive) | > 100 µM (inactive) | – | > 100 µM (inactive) | > 100 µM (inactive) | – | > 100 µM (inactive) | > 100 µM (inactive) | – | > 100 µM (inactive)
12 | CSC1=C(C(=O)N(COCC[Si](C)(C)C)c2ccccc2Br)CCC(C(C)(C)C)C1 (configuration not stated) | 28.1 µM (inactive) | 13.8 µM (inactive) | 3.24 µM (inactive) | 18.1 µM (inactive) | 15 µM (inactive) | 23.2 µM (inactive) | 15.7 µM (inactive) | 10.3 µM (inactive) | 17.9 µM (inactive) | 5.87 µM (inactive) | 13.9 µM (inactive) | 13.8 µM (inactive) | 12.4 µM (inactive) | 14.1 µM (inactive) | 20.6 µM (inactive) | 6.81 µM (inactive) | 11.6 µM (inactive) | 10.9 µM (inactive) | – | 13.6 µM (inactive)
13 | CC(C(=O)COCc1ccccc1)P1(=O)OC(C)(C)CN1C(C)(C)C (configuration not stated) | – | > 100 µM (inactive) | > 100 µM (inactive) | > 100 µM (inactive) | > 100 µM (inactive) | – | > 100 µM (inactive) | – | > 100 µM (inactive) | > 100 µM (inactive) | > 100 µM (inactive) | > 100 µM (inactive) | – | > 100 µM (inactive) | 54.7 µM (inactive) | > 100 µM (inactive) | – | > 100 µM (inactive) | > 100 µM (inactive) | > 100 µM (inactive)
14 | COc1ccc(C2=Nc3ccccc3NC(=O)C2)cc1 | – | > 100 µM (inactive) | 21.8 µM (inactive) | 22.5 µM (inactive) | > 100 µM (inactive) | 34.6 µM (inactive) | 18.3 µM (inactive) | – | – | > 100 µM (inactive) | > 100 µM (inactive) | 26.9 µM (inactive) | – | 43.3 µM (inactive) | 23.8 µM (inactive) | – | 28 µM (inactive) | > 100 µM (inactive) | – | 31.1 µM (inactive)
15 | COc1cc(C2C(Cl)C(=O)N2NC(=O)Cc2ccccc2)cc(Br)c1O (configuration not stated) | – | 94.8 µM (inactive) | 48 µM (inactive) | > 100 µM (inactive) | > 100 µM (inactive) | > 100 µM (inactive) | 74.3 µM (inactive) | – | – | 50.6 µM (inactive) | > 100 µM (inactive) | 76.9 µM (inactive) | – | > 100 µM (inactive) | 64.9 µM (inactive) | – | > 100 µM (inactive) | 55 µM (inactive) | – | 80.9 µM (inactive)
16 | O=C(CSCC(=O)N/N=C\c1cccc([N+](=O)[O-])c1)N/N=C\c1cccc([N+](=O)[O-])c1 | – | 53.6 µM (inactive) | > 100 µM (inactive) | 2.01 µM (inactive) | > 100 µM (inactive) | 23.1 µM (inactive) | 53.1 µM (inactive) | 18.9 µM (inactive) | > 100 µM (inactive) | > 100 µM (inactive) | > 100 µM (inactive) | 14.2 µM (inactive) | – | 68.9 µM (inactive) | 37.1 µM (inactive) | 34.1 µM (inactive) | 13.5 µM (inactive) | 70.8 µM (inactive) | – | 69.2 µM (inactive)
